The values below come from US8093239B2, “Imidazopyridine kinase inhibitors” (GlaxoSmithKline LLC, priority 2007, dated 2012).

Series [1] relates to LISN cell (mouse 3T3 fibroblasts transduced with human IGF-1R) tumors. In words: In vivo efficacy, mice bearing LISN cell tumors. The settings on record: for tumor growth inhibition at day 21: LISN tumors (~362 mm^3). Here is the method:
E. In Vivo Efficacy—Mouse Models
The efficacy of the compounds of Examples 57 and 58 were assessed together in an in vivo efficacy experiment performed on mice bearing LISN cell (mouse 3T3 fibroblasts transduced with human IGF-1R) tumors. Fifty six female nude mice bearing subcutaneous LISN cell tumors were measured for tumor size and body weight and block randomized into seven groups of eight mice with an equal average tumor volume of approximately 200 mm3. Mice were dosed with either vehicle (20% SBE pH3.5), Example 57 or Example 58. The dosing schedules for each compound were based on previous experiments with the compounds and doses chosen to give the highest tumor growth inhibition and a dose response. Example 58 was dosed at 30, 100 and 300 mg/kg QD for 21 days while Example 57 was dosed at 30 mg/kg QD for 21 days, 15 mg/kg BID for 21 days and 30 mg/kg QD×3 days/week for 3 weeks.
The tumors on mice being treated with vehicle grew with the expected exponential growth throughout the 21 day study. […] The lower dose of 30 mg/kg of Example 58 achieved 28% tumor growth inhibition.
The efficacy of the compounds of Examples 237 and 219 were assessed together in an in vivo efficacy experiment performed on mice bearing LISN cell (mouse 3T3 fibroblasts transduced with human IGF-1R) tumors. Sixty four female nude mice bearing subcutaneous LISN cell tumors were measured for tumor size and body weight and block randomized into eight groups of eight mice with an equal average tumor volume of approximately 362 mm^3. Mice were dosed with either vehicle (20% SBE pH3.5), Example 237 or Example 219. The dosing schedules for each compound were based on previous experiments with the compounds and doses chosen to give the highest tumor growth inhibition and a dose response. Example 237 was administered at 30 and 60 mg/kg QD for 21 days and 30 mg/kg BID for 21 days while Example 219 was administered at 50 and 100 mg/kg QD for 21 days, 25 and 50 mg/kg BID for 21 days.
The tumors on mice being treated with vehicle grew with the expected exponential growth throughout the 21 day study. […] The lower dose of 30 mg/kg QD of Example 237 achieved 15% tumor growth inhibition at day 21 (note: 2 animals were euthanized prior to the last measurement). […] This recovered to 3% by the end of dosing and fully recovered after dosing was concluded. […] This recovered fully within 4 days after the completion of dosing.

For series [2], the system named is Colo-205 tumors (colon carcinoma cell line). In words: In vivo efficacy, Colo-205 tumor bearing mice. On the set-up: species or system mouse. The note with it: Colo-205 study. Here is the method:
(§1) In addition to the LISN xenograft efficacy studies, Example 57 has also been assessed in vivo in two other mouse models of cancer, including: Colo-205 tumor bearing mice (colon carcinoma cell line) and BT474 tumor bearing mice (breast carcinoma cell line). Forty female nude mice bearing Colo-205 tumors (average tumor size of 200 mm3) were randomized into five groups of eight mice and dosed with either vehicle (20% SBE pH3.5) or Example 57 at 100, 30, 10 mg/kg QD or 30 mg/kg BID for 21 days. The groups of mice dosed with the higher doses of Example 57 (100 mg/kg QD and 30 mg/kg BID) lost greater than 20% body weight within 10 days of dosing so were taken off the study and allowed to recover. […] The higher doses of 100 mg/kg QD×10 and 30 mg/kg BID×10 achieved 72 and 49% tumor growth inhibition respectively.

Series [3] deals with BT474 cell tumors (breast carcinoma cell line). In words: In vivo efficacy, BT474 tumor bearing mice. The arrangement: species or system mouse. The settings on record: BT474 study, all groups (60, 30, 15 mg/kg QD, 15 mg/kg BID). Here is the method: as §1
Due to the body weight loss seen with the higher doses in the Colo-205 xenograft efficacy study, the dosing regime was altered for the follow up BT474 study. Forty female nude mice bearing subcutaneous BT474 cell tumors (average tumor size of 200 mm3) were randomized into five groups each containing eight mice and dosed with either vehicle (20% SBE pH3.5) or Example 57 at 60, 30 or 15 mg/kg QD or 15 mg/kg BID for 21 days. Note the maximal QD dose was reduced from 100 mg/kg to 60 mg/kg and the BID dose reduced from 30 mg/kg to 15 mg/kg. […]

The mark [4] stands for this setting: LISN study (~362 mm^3), 100 mg/kg and 50 mg/kg QD.

Turning to `COc1cc(N2CCC(N3CCN(CCF)CC3)CC2)ccc1Nc1nccc(-c2c(-c3cccc(C(=O)Nc4c(F)cccc4F)c3)nc3ccccn23)n1` [Example 57, N-(2,6-difluorophenyl)-3-[3-(2-{[4-{4-[4-(2-fluoroethyl)-1-piperazinyl]-1-piperidinyl}-2-(methyloxy)phenyl]amino}-4-pyrimidinyl)imidazo[1,2-a]pyridin-2-yl]benzamide], the body weight loss entry is recorded as “no body weight loss” in series [1] (LISN study, 30 mg/kg QD and 15 mg/kg BID treated groups, 21 days); “significant body weight loss” in series [1] (LISN study, 30 mg/kg QD×3 days/week for 3 weeks, over the three consecutive days of dosing, recovered in the four days between doses); “no body weight loss” in series [2] (30 and 10 mg/kg QD×21); “no body weight loss” in series [3]. In series [1] (LISN study, 30 mg/kg QD and 15 mg/kg BID, 21 days), the tolerability entry was “well tolerated”. Further, the body weight lost result in series [2] (100 mg/kg QD and 30 mg/kg BID, within 10 days of dosing) is “greater than 20%”.

For `COc1cc(N2CCC(N3CCN(S(C)(=O)=O)CC3)CC2)ccc1Nc1nccc(-c2c(-c3cccc(C(=O)Nc4c(F)cccc4F)c3)nc3ccccn23)n1` [Example 58, N-(2,6-difluorophenyl)-3-(3-{2-[(2-(methyloxy)-4-{4-[4-(methylsulfonyl)-1-piperazinyl]-1-piperidinyl}phenyl)amino]-4-pyrimidinyl}imidazo[1,2-a]pyridin-2-yl)benzamide], the body weight loss result in series [1] (LISN study, 30, 100 and 300 mg/kg QD for 21 days, throughout the study) was “no effect of Example 58 on body weight loss”.

For the compound `CCOc1cc(N2CCC(CCS(C)(=O)=O)CC2)c(C)cc1Nc1nccc(-c2c(-c3ccc(OC)c(C(=O)Nc4c(F)cccc4F)c3)nc3ccccn23)n1` [Example 219, N-(2,6-difluorophenyl)-5-(3-{2-[(2-(ethyloxy)-5-methyl-4-{4-[2-(methylsulfonyl)ethyl]-1-piperidinyl}phenyl)amino]-4-pyrimidinyl}imidazo[1,2-a]pyridin-2-yl)-2-(methyloxy)benzamide], in series [1] (LISN study (~362 mm^3), 25 mg/kg BID and 50 mg/kg BID), the “time to full recovery of body weight after the completion of dosing” value was no more than 4 days. Further, the body weight loss was 4% in series [1] (LISN study (~362 mm^3), 25 mg/kg BID for 21 days); 6% in series [1] (LISN study (~362 mm^3), 50 mg/kg BID for 21 days); “no body weight loss” in series [1] (setting [4]). In series [1] (setting [4]), the tolerability entry is given as “well tolerated”.

As to `CCc1cc(Nc2nccc(-c3c(-c4ccc(OC)c(C(=O)Nc5c(F)cccc5F)c4)nc4ccccn34)n2)c(OC)cc1N1CCC(N2CCN(S(C)(=O)=O)CC2)CC1` [Example 237, N-(2,6-difluorophenyl)-5-(3-{2-[(5-ethyl-2-(methyloxy)-4-{4-[4-(methylsulfonyl)-1-piperazinyl]-1-piperidinyl}phenyl)amino]-4-pyrimidinyl}imidazo[1,2-a]pyridin-2-yl)-2-(methyloxy)benzamide], the “initial body weight loss” value in series [1] (LISN study (~362 mm^3), 30 mg/kg BID) stood at 6%. For the same compound, the “body weight loss by the end of dosing” value in series [1] (LISN study (~362 mm^3), 30 mg/kg BID, fully recovered after dosing was concluded) is recorded as 3%. In series [1] (LISN study (~362 mm^3), other groups (30 and 60 mg/kg QD)), the body weight loss result is “no effect on body weight loss”. Further, the “tumor growth inhibition at day 21” value came to 84% in series [1] (30 mg/kg BID for 21 days); 15% in series [1] (30 mg/kg QD for 21 days, 2 animals euthanized prior to the last measurement); 41% in series [1] (60 mg/kg QD for 21 days).
